Results taken from ChEMBL document CHEMBL1147070 (Drug Metab Dispos, 2007).

What was measured:
Type in all cases: cell-based
[1] = molecular target: T1, Solute carrier family 22 member 12 (Homo sapiens, UniProt Q96S37); experiment: Inhibition of human URAT1-mediated urate uptake in HEK293 cells by competitive inhibition assay
T1 sequence (Q96S37 whole entry): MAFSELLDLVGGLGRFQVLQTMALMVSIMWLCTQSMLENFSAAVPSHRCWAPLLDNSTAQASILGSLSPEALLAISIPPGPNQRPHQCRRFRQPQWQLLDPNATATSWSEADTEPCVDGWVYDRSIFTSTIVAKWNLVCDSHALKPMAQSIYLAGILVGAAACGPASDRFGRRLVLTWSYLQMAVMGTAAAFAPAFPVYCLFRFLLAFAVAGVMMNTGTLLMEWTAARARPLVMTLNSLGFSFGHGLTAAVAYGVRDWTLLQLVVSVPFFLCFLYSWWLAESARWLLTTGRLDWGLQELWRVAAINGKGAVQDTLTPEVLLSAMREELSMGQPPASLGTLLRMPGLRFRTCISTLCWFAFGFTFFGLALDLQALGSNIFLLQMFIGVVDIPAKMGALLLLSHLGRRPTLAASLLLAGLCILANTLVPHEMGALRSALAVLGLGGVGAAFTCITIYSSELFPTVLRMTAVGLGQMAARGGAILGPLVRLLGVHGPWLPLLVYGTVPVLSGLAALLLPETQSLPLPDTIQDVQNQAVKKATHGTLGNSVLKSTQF

[2] = molecular target: T1, Solute carrier family 22 member 12; experiment: Inhibition of human URAT1-mediated urate uptake in HEK293 cells
URAT1 (SLC22A12) = molecular target: T2, URAT1 (SLC22A12) (Homo sapiens, UniProt Q96S37); experiment: Inhibition of human URAT1-mediated urate uptake in HEK293 cells at 2 uM; details: HEK293 cells expressing human URAT1, probe urate
T2 sequence (Q96S37 whole entry): T1 sequence (Q96S37 whole entry)

| Ki [1] [µM] | IC50 [2] [µM] | inhibition at 2 µM (URAT1 (SLC22A12)) [%] | SMILES |
| --- | --- | --- | --- |
| 5.74 | 2 |  | O=c1c(O)c(-c2ccc(O)cc2O)oc2cc(O)cc(O)c12 [MORIN] |
|  | 100 |  | O=C1C(CC[S+]([O-])c2ccccc2)C(=O)N(c2ccccc2)N1c1ccccc1 (stereo not given) [SULFINPYRAZONE] |
|  |  | 30 | CCCN(CCC)S(=O)(=O)c1ccc(C(=O)O)cc1 [PROBENECID] |
|  |  | 70 | CCc1oc2ccccc2c1C(=O)c1cc(Br)c(O)c(Br)c1 [BENZBROMARONE] |
